Measured values taken from US7138361B2, “Herbicidal heterocycles” (E. I. du Pont de Nemours and Company, priority 2000, dated 2006).

Legend:
Format in all cases: in vivo
[1] = system: kochia (Kochia scoparia); test: Test C postemergence
Outline: (§1)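 Compounds in non-phytotoxic solvent with surfactant applied preemergence to planted seeds and postemergence to plants at 1- to 4-leaf stage (2–18 cm). Kept in greenhouse 12–14 days, then visually rated against controls on a 0 (no effect) to 100 (complete control) scale.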

[2] = system: common ragweed (Ambrosia elatior); test: Test C postemergence
Outline: as §1

[3] = system: corn (Zea mays); test: Test C postemergence
Outline: as §1

[4] = system: pigweed (Amaranthus retroflexus); test: Test C postemergence
Outline: as §1

[5] = system: morningglory (Ipomoea hederacea); test: Test C postemergence
Outline: as §1

[6] = system: soybean (Glycine max); test: Test C postemergence
Outline: as §1

[7] = system: giant foxtail (Setaria faberii); test: Test C postemergence
Outline: as §1

[8] = system: crabgrass (Digitaria sanguinalis); test: Test C postemergence
Outline: as §1

[9] = system: cocklebur (Xanthium strumarium); test: Test C postemergence
Outline: as §1

[10] = system: johnsongrass (Sorghum halepense); test: Test C postemergence
Outline: as §1

[11] = system: yellow nutsedge (Cyperus esculentus); test: Test C postemergence
Outline: as §1

[12] = system: velvetleaf (Abutilon theophrasti); test: Test C postemergence
Outline: as §1

[13] = system: lambsquarters (Chenopodium album); test: Test C postemergence
Outline: as §1

[14] = system: goosegrass (Eleusine indica); test: Test C postemergence
Outline: as §1

[15] = system: bermudagrass (Cynodon dactylon); test: Test C postemergence
Outline: as §1

[16] = system: Sunflower; test: Test C preemergence; conditions: scale 0 to 100
[17] = system: barnyardgrass (Echinochloa crus-galli); test: Test C flooded paddy test; conditions: for Barnyardgrass plant response rating: Flooded Paddy, scale 0 to 100, 0 no effect, 100 complete control; for Plant response rating, Barnyardgrass: flooded paddy test, scale 0 to 100 (0 no effect, 100 complete control)
Outline: (§2)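 Ratings come from visual comparison with control plants after 12 to 14 days in the greenhouse. Each species was at the 2-leaf stage when the flooded paddy was treated. Scores run from 0, meaning no effect, to 100, meaning complete control.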

[18] = system: rice (Oryza saliva); test: Test C flooded paddy test; conditions: for Rice plant response rating: Flooded Paddy, scale 0 to 100, 0 no effect, 100 complete control; for Plant response rating, Rice: flooded paddy test, scale 0 to 100 (0 no effect, 100 complete control)
Outline: as §2

[19] = system: duck salad (Heteranthera limosa); test: Test C flooded paddy test; conditions: for Ducksalad plant response rating: Flooded Paddy, scale 0 to 100, 0 no effect, 100 complete control; for Plant response rating, Ducksalad: flooded paddy test, scale 0 to 100 (0 no effect, 100 complete control)
Outline: as §2

[20] = Rate 125 g/ha, scale 0 to 100, 0 no effect, 100 complete control
[21] = Rate 250 g/ha, scale 0 to 100 (0 no effect, 100 complete control)
[22] = Rate 500 g/ha, scale 0 to 100 (0 no effect, 100 complete control)

Structure (SMILES): CCC(CC)c1ccn(C2CCN(c3ccc(C)c(OC)c3)C2=O)n1 (centres unmarked) [Compound 81]
- Plant response rating, Kochia ([1]; Rate 31 g/ha, scale 0 to 100): 40
- Plant response rating, Kochia ([1]; Rate 62 g/ha, scale 0 to 100): 50
- Plant response rating, Kochia [1, 20]: 50
- Plant response rating, Kochia [1, 21]: 70
- Plant response rating, Ragweed, Common ([2]; Rate 31 g/ha, scale 0 to 100): 0
- Plant response rating, Ragweed, Common ([2]; Rate 62 g/ha, scale 0 to 100): 0
- Plant response rating, Ragweed, Common [2, 20]: 0
- Plant response rating, Ragweed, Common [2, 21]: 0
- Plant response rating, Corn ([3]; Rate 31 g/ha, scale 0 to 100): 0
- Plant response rating, Corn ([3]; Rate 62 g/ha, scale 0 to 100): 0
- Plant response rating, Corn [3, 20]: 0
- Plant response rating, Corn [3, 21]: 0
- Plant response rating, Pigweed ([4]; Rate 31 g/ha, scale 0 to 100): 0
- Plant response rating, Pigweed ([4]; Rate 62 g/ha, scale 0 to 100): 0
- Plant response rating, Pigweed [4, 20]: 0
- Plant response rating, Pigweed [4, 21]: 60
- Plant response rating, Morningglory ([5]; Rate 31 g/ha, scale 0 to 100): 50
- Plant response rating, Morningglory ([5]; Rate 62 g/ha, scale 0 to 100): 60
- Plant response rating, Morningglory [5, 20]: 80
- Plant response rating, Morningglory [5, 21]: 80
- Plant response rating, Soybean ([6]; Rate 31 g/ha, scale 0 to 100): 50
- Plant response rating, Soybean ([6]; Rate 62 g/ha, scale 0 to 100): 60
- Plant response rating, Soybean [6, 20]: 70
- Plant response rating, Soybean [6, 21]: 90
- Plant response rating, Foxtail, Giant ([7]; Rate 31 g/ha, scale 0 to 100): 0
- Plant response rating, Foxtail, Giant ([7]; Rate 62 g/ha, scale 0 to 100): 0
- Plant response rating, Foxtail, Giant [7, 20]: 0
- Plant response rating, Foxtail, Giant [7, 21]: 0
- Plant response rating, Crabgrass ([8]; Rate 31 g/ha, scale 0 to 100): 0
- Plant response rating, Crabgrass ([8]; Rate 62 g/ha, scale 0 to 100): 0
- Plant response rating, Crabgrass [8, 20]: 0
- Plant response rating, Crabgrass [8, 21]: 0
- Plant response rating, Cocklebur ([9]; Rate 31 g/ha, scale 0 to 100): 0
- Plant response rating, Cocklebur ([9]; Rate 62 g/ha, scale 0 to 100): 0
- Plant response rating, Cocklebur [9, 20]: 20
- Plant response rating, Cocklebur [9, 21]: 50
- Plant response rating, Johnsongrass ([10]; Rate 31 g/ha, scale 0 to 100): 0
- Plant response rating, Johnsongrass ([10]; Rate 62 g/ha, scale 0 to 100): 0
- Plant response rating, Johnsongrass [10, 20]: 0
- Plant response rating, Johnsongrass [10, 21]: 0
- Plant response rating, Nutsedge ([11]; Rate 31 g/ha, scale 0 to 100): 0
- Plant response rating, Nutsedge ([11]; Rate 62 g/ha, scale 0 to 100): 0
- Plant response rating, Nutsedge [11, 20]: 0
- Plant response rating, Nutsedge [11, 21]: 0
- Plant response rating, Velvetleaf ([12]; Rate 31 g/ha, scale 0 to 100): 20
- Plant response rating, Velvetleaf ([12]; Rate 62 g/ha, scale 0 to 100): 20
- Plant response rating, Velvetleaf [12, 20]: 20
- Plant response rating, Velvetleaf [12, 21]: 20
- Plant response rating, Lambsquarters ([13]; Rate 31 g/ha, scale 0 to 100): 0
- Plant response rating, Lambsquarters ([13]; Rate 62 g/ha, scale 0 to 100): 60
- Plant response rating, Lambsquarters [13, 21]: 80
- Plant response rating, Goosegrass ([14]; Rate 31 g/ha, scale 0 to 100): 0
- Plant response rating, Goosegrass ([14]; Rate 62 g/ha, scale 0 to 100): 0
- Plant response rating, Goosegrass [14, 20]: 0
- Plant response rating, Goosegrass [14, 21]: 20
- Plant response rating, Bermudagrass ([15]; Rate 31 g/ha, scale 0 to 100): 0
- Plant response rating, Bermudagrass ([15]; Rate 62 g/ha, scale 0 to 100): 0
- Plant response rating, Bermudagrass [15, 20]: 0
- Plant response rating, Bermudagrass [15, 21]: 0
- Plant response rating, Sunflower ([16]; Rate 31 g/ha): 0
- Barnyardgrass plant response rating ([17]; Rate 250 g/ha): 90
- Barnyardgrass plant response rating ([17]; Rate 500 g/ha): 90
- Plant response rating, Barnyardgrass ([17]; Rate 62 g/ha): 20
- Plant response rating, Barnyardgrass ([17]; Rate 125 g/ha): 80
- Rice plant response rating ([18]; Rate 250 g/ha): 80
- Rice plant response rating ([18]; Rate 500 g/ha): 80
- Plant response rating, Rice ([18]; Rate 62 g/ha): 0
- Plant response rating, Rice ([18]; Rate 125 g/ha): 0
- Ducksalad plant response rating ([19]; Rate 250 g/ha): 90
- Ducksalad plant response rating ([19]; Rate 500 g/ha): 100
- Plant response rating, Ducksalad ([19]; Rate 62 g/ha): 80
- Plant response rating, Ducksalad ([19]; Rate 125 g/ha): 90

Structure (SMILES): COc1cc(N2CCC(n3ccc(C(C)C)n3)C2=O)ccc1C (centres unmarked) [Compound 85]
- Plant response rating, Kochia ([1]; Rate 62 g/ha, scale 0 to 100): 40
- Plant response rating, Kochia [1, 20]: 60
- Plant response rating, Kochia [1, 21]: 80
- Plant response rating, Kochia [1, 22]: 90
- Plant response rating, Ragweed, Common ([2]; Rate 62 g/ha, scale 0 to 100): 0
- Plant response rating, Ragweed, Common [2, 20]: 20
- Plant response rating, Ragweed, Common [2, 21]: 20
- Plant response rating, Ragweed, Common [2, 22]: 90
- Plant response rating, Corn ([3]; Rate 62 g/ha, scale 0 to 100): 50
- Plant response rating, Corn [3, 20]: 50
- Plant response rating, Corn [3, 21]: 50
- Plant response rating, Corn [3, 22]: 60
- Plant response rating, Pigweed ([4]; Rate 62 g/ha, scale 0 to 100): 60
- Plant response rating, Pigweed [4, 20]: 70
- Plant response rating, Pigweed [4, 21]: 90
- Plant response rating, Pigweed [4, 22]: 100
- Plant response rating, Morningglory ([5]; Rate 62 g/ha, scale 0 to 100): 60
- Plant response rating, Morningglory [5, 20]: 80
- Plant response rating, Morningglory [5, 21]: 80
- Plant response rating, Morningglory [5, 22]: 90
- Plant response rating, Soybean ([6]; Rate 62 g/ha, scale 0 to 100): 60
- Plant response rating, Soybean [6, 20]: 60
- Plant response rating, Soybean [6, 21]: 70
- Plant response rating, Soybean [6, 22]: 70
- Plant response rating, Foxtail, Giant ([7]; Rate 62 g/ha, scale 0 to 100): 20
- Plant response rating, Foxtail, Giant [7, 20]: 20
- Plant response rating, Foxtail, Giant [7, 21]: 40
- Plant response rating, Foxtail, Giant [7, 22]: 70
- Plant response rating, Crabgrass ([8]; Rate 62 g/ha, scale 0 to 100): 30
- Plant response rating, Crabgrass [8, 20]: 30
- Plant response rating, Crabgrass [8, 21]: 40
- Plant response rating, Crabgrass [8, 22]: 70
- Plant response rating, Cocklebur ([9]; Rate 62 g/ha, scale 0 to 100): 40
- Plant response rating, Cocklebur [9, 20]: 70
- Plant response rating, Cocklebur [9, 21]: 90
- Plant response rating, Cocklebur [9, 22]: 90
- Plant response rating, Johnsongrass ([10]; Rate 62 g/ha, scale 0 to 100): 30
- Plant response rating, Johnsongrass [10, 20]: 40
- Plant response rating, Johnsongrass [10, 21]: 40
- Plant response rating, Johnsongrass [10, 22]: 70
- Plant response rating, Nutsedge ([11]; Rate 62 g/ha, scale 0 to 100): 10
- Plant response rating, Nutsedge [11, 22]: 90
- Plant response rating, Velvetleaf ([12]; Rate 62 g/ha, scale 0 to 100): 40
- Plant response rating, Velvetleaf [12, 20]: 40
- Plant response rating, Velvetleaf [12, 21]: 40
- Plant response rating, Velvetleaf [12, 22]: 40
- Plant response rating, Lambsquarters ([13]; Rate 62 g/ha, scale 0 to 100): 70
- Plant response rating, Lambsquarters [13, 20]: 90
- Plant response rating, Lambsquarters [13, 21]: 100
- Plant response rating, Lambsquarters [13, 22]: 100
- Plant response rating, Goosegrass ([14]; Rate 62 g/ha, scale 0 to 100): 10
- Plant response rating, Goosegrass [14, 20]: 10
- Plant response rating, Goosegrass [14, 21]: 20
- Plant response rating, Goosegrass [14, 22]: 60
- Plant response rating, Bermudagrass ([15]; Rate 62 g/ha, scale 0 to 100): 0
- Plant response rating, Bermudagrass [15, 20]: 0
- Plant response rating, Bermudagrass [15, 21]: 80
- Plant response rating, Bermudagrass [15, 22]: 90
- Plant response rating, Sunflower ([16]; Rate 62 g/ha): 40
- Barnyardgrass plant response rating ([17]; Rate 250 g/ha): 100
- Barnyardgrass plant response rating ([17]; Rate 500 g/ha): 100
- Plant response rating, Barnyardgrass ([17]; Rate 62 g/ha): 40
- Plant response rating, Barnyardgrass ([17]; Rate 125 g/ha): 90
- Rice plant response rating ([18]; Rate 250 g/ha): 80
- Rice plant response rating ([18]; Rate 500 g/ha): 100
- Plant response rating, Rice ([18]; Rate 62 g/ha): 30
- Plant response rating, Rice ([18]; Rate 125 g/ha): 60
- Ducksalad plant response rating ([19]; Rate 250 g/ha): 100
- Ducksalad plant response rating ([19]; Rate 500 g/ha): 100
- Plant response rating, Ducksalad ([19]; Rate 62 g/ha): 90
- Plant response rating, Ducksalad ([19]; Rate 125 g/ha): 100
